This note sets out measurements from ChEMBL document CHEMBL5584230, “Exploring fluorine-substituted piperidines as potential therapeutics for diabetes mellitus and Alzheimer's diseases” (Eur J Med Chem, 2024).

The nature of data set [1]: Antioxidant activity assessed as DPPH radical scavenging activity incubated for 30 mins. The data set is classed as functional. In general terms: The DPPH test is a chemical assay of radical scavenging.
Data set [2] can be described thus: Antioxidant activity assessed as ABTS radical scavenging activity. The data set is classed as functional.
The test system of data set [3] is Rattus norvegicus. In words: Anti-diabetic activity in STZ-induced diabetic Sprague-Dawley rat model assessed as increase in body weight at 9 mg/kg, ip measured at day 28. The data set is classed as functional, organism-based. To be noted: time 28.0 day.
Data set [4] relates to Rattus norvegicus. In words: Anti-diabetic activity in STZ-induced diabetic Sprague-Dawley rat model assessed as reduction in blood glucose level at 9 mg/kg, ip measured at day 28 (reference value: 501.71 +/- 3.91 mg/dl). The data set is classed as functional. To be noted: time 28 day.
Data set [5] relates to Rattus norvegicus. In words: Anti-diabetic activity in STZ-induced diabetic Sprague-Dawley rat model assessed as reduction in blood glucose level at 9 mg/kg, ip measured at day 1 (reference value: 494.14 +/- 4.15 mg/dl). The settings on record: time 1 day. The data set is classed as functional.
Data set [6] concerns Rattus norvegicus. In words: Anti-diabetic activity in STZ-induced diabetic Sprague-Dawley rat model assessed as reduction in blood glucose level at 9 mg/kg, ip measured at day 14 (reference value: 489.44 +/- 4.18 mg/dl). The data set is classed as functional. The settings on record: time 14 day.
Data set [7] in a line: Acute toxicity in BALB/c mouse upto 100 mg/kg, ip administered for 72 hrs and measured after 14 days. The data set is classed as organism-based. To be noted: in vivo, 408 h, time 17 day.
Data set [8] deals with Rattus norvegicus. In words: Anti-diabetic activity in STZ-induced diabetic Sprague-Dawley rat model assessed as increase in body weight at 9 mg/kg, ip measured at day 1. The data set is classed as functional, organism-based. To be noted: time 1.0 day.
In data set [9] the test system is Rattus norvegicus. In words: Anti-diabetic activity in STZ-induced diabetic Sprague-Dawley rat model assessed as reduction in cholesterol level in plasma at 9 mg/kg, ip (reference value: 218 +/- 4.41 mg/dl). The data set is classed as functional.
The subject of data set [10] is Rattus norvegicus. In words: Anti-diabetic activity in STZ-induced diabetic Sprague-Dawley rat model assessed as reduction in blood glucose level at 9 mg/kg, ip measured at day 7 (reference value: 490.69 +/- 3.98 mg/dl). The data set is classed as functional. The settings on record: time 7 day.
The target in a further data set is Cholinesterase (Homo sapiens, UniProt P06276). In words: Inhibition of BchE (unknown origin).
Data set [11] concerns Rattus norvegicus. In words: Anti-diabetic activity in STZ-induced diabetic Sprague-Dawley rat model assessed as reduction in blood glucose level at 9 mg/kg, ip measured at day 21 (reference value: 503.09 +/- 4.15 mg/dl). The data set is classed as functional. To be noted: time 21 day.
The test system of data set [12] is Rattus norvegicus. In words: Anti-diabetic activity in STZ-induced diabetic Sprague-Dawley rat model assessed as reduction in TG level in plasma at 9 mg/kg, ip (reference value: 226.19 +/- 3.97 mg/dl). The data set is classed as functional.
For data set [13], the target named is T1, Acetylcholinesterase (Homo sapiens, UniProt P22303). In words: Inhibition of AChE (unknown origin).
Data set [14] has as its system Rattus norvegicus. In words: Anti-diabetic activity in STZ-induced diabetic Sprague-Dawley rat model assessed as reduction in LDL level in plasma at 9 mg/kg, ip (reference value: 138.19 +/- 3.67 mg/dl). The data set is classed as functional.
The subject of data set [15] is Rattus norvegicus. In words: Anti-diabetic activity in STZ-induced diabetic Sprague-Dawley rat model assessed as increase in body weight at 9 mg/kg, ip measured at day 14. The data set is classed as functional, organism-based. To be noted: time 14.0 day.
Data set [16] has as its system Rattus norvegicus. In words: Anti-diabetic activity in STZ-induced diabetic Sprague-Dawley rat model assessed as reduction in HDL level in plasma at 9 mg/kg, ip (reference value: 21.09 +/- 1.71 mg/dl). The data set is classed as functional.
Data set [17] is described as follows: Inhibition of alpha-glucosidase (unknown origin). Set-up: species or system Homo sapiens.
The subject of data set [18] is Rattus norvegicus. In words: Anti-diabetic activity in STZ-induced diabetic Sprague-Dawley rat model assessed as change in blood glucose level at 9 mg/kg, ip measured for 28 days. The data set is classed as functional, organism-based. The settings on record: time 28.0 day.
Data set [19] addresses T1, Acetylcholinesterase. In words: Inhibition of AChE (unknown origin) using […] assessed as inhibition constant by Lineweaver-Burk plot analysis.
Data set [20] concerns the target T1, Acetylcholinesterase. In words: Mixed type inhibition of AChE (unknown origin) using […] assessed as effect on Vmax and Km at 1.95 to 7.8 uM by Lineweaver-Burk plot analysis. To be noted: dose 1.95-7.8 µM.
Data set [21] can be described thus: Inhibition of alpha-glucosidase (unknown origin) using p-nitrophenyl glucopyranoside as substrate assessed as inhibition constant by Lineweaver-Burk plot analysis. Set-up: species or system Homo sapiens.
The species entered for another data set is Homo sapiens. In words: Competitive inhibition of alpha-glucosidase (unknown origin) […] using p-nitrophenyl glucopyranoside as substrate assessed as increase in Km with constant Vmax upto 180 uM using varying concentrations of substrate measured for 20 mins by Lineweaver-Burk plot analysis.

One may read the IC50 as the concentration needed to halve the response being measured. Broadly, the Ki is the dissociation constant of the complex between target and ligand, obtained from inhibition or displacement.

Structures are written as SMILES. “And” between values parts separate entries of the source, which are not always exact repeats. Equal values may be shown once. The source made the active and inactive calls. No cut-off for these calls is given here.

Cholinesterase, sequence (P06276 whole entry): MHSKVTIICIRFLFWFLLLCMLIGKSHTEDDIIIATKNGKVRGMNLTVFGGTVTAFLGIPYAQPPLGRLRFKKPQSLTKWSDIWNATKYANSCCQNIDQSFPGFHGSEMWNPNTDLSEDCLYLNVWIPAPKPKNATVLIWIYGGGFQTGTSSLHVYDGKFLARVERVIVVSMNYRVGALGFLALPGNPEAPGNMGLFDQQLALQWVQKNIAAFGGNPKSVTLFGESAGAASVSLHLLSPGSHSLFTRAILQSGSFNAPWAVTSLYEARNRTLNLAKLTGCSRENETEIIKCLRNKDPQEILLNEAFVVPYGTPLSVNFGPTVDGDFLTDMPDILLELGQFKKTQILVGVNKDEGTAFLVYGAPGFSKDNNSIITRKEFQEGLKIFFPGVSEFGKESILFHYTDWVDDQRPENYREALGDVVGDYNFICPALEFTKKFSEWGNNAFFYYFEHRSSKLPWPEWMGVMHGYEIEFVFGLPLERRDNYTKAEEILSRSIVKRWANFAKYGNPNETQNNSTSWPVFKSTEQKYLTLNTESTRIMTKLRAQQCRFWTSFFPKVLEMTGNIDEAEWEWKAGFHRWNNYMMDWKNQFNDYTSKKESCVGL
T1 sequence (P22303 whole entry): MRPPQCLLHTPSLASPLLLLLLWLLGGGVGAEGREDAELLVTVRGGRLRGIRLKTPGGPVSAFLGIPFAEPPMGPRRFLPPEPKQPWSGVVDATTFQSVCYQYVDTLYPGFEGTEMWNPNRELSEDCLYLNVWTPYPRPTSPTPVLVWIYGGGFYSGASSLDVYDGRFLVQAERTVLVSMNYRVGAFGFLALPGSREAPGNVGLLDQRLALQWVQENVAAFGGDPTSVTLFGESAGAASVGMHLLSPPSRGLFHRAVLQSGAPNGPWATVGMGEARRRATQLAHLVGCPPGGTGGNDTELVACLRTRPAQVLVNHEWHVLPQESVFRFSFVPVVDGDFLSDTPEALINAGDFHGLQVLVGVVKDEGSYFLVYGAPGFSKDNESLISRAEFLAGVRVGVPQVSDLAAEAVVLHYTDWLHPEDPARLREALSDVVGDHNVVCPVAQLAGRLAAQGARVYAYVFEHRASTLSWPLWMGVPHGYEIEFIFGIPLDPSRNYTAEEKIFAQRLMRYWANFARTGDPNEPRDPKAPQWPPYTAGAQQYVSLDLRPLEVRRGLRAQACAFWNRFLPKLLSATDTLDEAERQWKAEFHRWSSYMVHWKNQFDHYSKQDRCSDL

With `O=C1O[C@H]([C@@H](O)CO)C(O)=C1O` [ASCORBIC ACID], the half-maximal inhibitory concentration (IC50) in data set [1] was found to be 640 nM.
On to `Cc1c(C)c2c(c(C)c1O)CCC(C)(C(=O)O)O2` (stereo not drawn) [TROLOX], for which the IC50 in data set [2] was 28 nM.
For the compound `CCOC(=O)C1=C(Nc2cccc(F)c2)CC(c2ccc(C(F)(F)F)cc2)N(c2cccc(F)c2)C1c1ccc(C(F)(F)F)cc1` (stereo not drawn), the result in the data set with Rattus norvegicus [3], in the data set on Rattus norvegicus [8], with Rattus norvegicus [15] and in the data set with Rattus norvegicus [18] was Active. Moreover, the Activity with Rattus norvegicus [4] is 152.61 mg/dL; in the data set on Rattus norvegicus [5], 495.39 mg/dL; with Rattus norvegicus [6], 334.29 mg/dL; in data set [7] it was “Non-Toxic”; in the data set on Rattus norvegicus [9], 78.67 mg/dL; in the data set with Rattus norvegicus [10], 422.69 mg/dL. The Activity with Rattus norvegicus [11] came out at 240.19 mg/dL; in the data set on Rattus norvegicus [12] it was 93.71 mg/dL; in the data set with Rattus norvegicus [14], 51.22 mg/dL; in the data set on Rattus norvegicus [16], 31.06 mg/dL. The IC50 was determined as 1270 nM on Cholinesterase; 814 nM in [1]; 1190 nM on Acetylcholinesterase [13]; 220 nM in data set [17]; 629 nM in [2].
With `CCOC(=O)C1=C(Nc2ccc(F)cc2)CC(c2ccc(Cl)cc2)N(c2ccc(F)cc2)C1c1ccc(Cl)cc1` (stereo not drawn), the result in the data set on Rattus norvegicus [3], with Rattus norvegicus [8], with Rattus norvegicus [15] and in the data set on Rattus norvegicus [18] was Active. Besides, the Activity in the data set on Rattus norvegicus [4] was 167.81 mg/dL; in the data set on Rattus norvegicus [5], 498.7 mg/dL; with Rattus norvegicus [6] it was 349.78 mg/dL; in data set [7], “Non-Toxic”; with Rattus norvegicus [9], 87.96 mg/dL; with Rattus norvegicus [10], 427.82 mg/dL. For the same compound, the Activity in the data set on Rattus norvegicus [11] worked out at 244.27 mg/dL; in the data set with Rattus norvegicus [12], 104.2 mg/dL; in the data set with Rattus norvegicus [14], 61.39 mg/dL; in the data set on Rattus norvegicus [16] it was 28.09 mg/dL. Moreover, the IC50 on Cholinesterase is 1020 nM; in data set [1] it was 1320 nM; against Acetylcholinesterase [13], 916 nM; in [17] it was 291 nM; in [2] it was 461 nM.
In turn, `C[C@H]1O[C@H](O[C@H]2[C@H](O)[C@@H](O)[C@@H](O[C@H]3[C@H](O)[C@@H](O)C(O)O[C@@H]3CO)O[C@@H]2CO)[C@H](O)[C@@H](O)[C@@H]1N[C@H]1C=C(CO)[C@@H](O)[C@H](O)[C@H]1O` (stereo partly drawn) [ACARBOSE] displayed an IC50 in data set [17] of 28700 nM.
For the compound `CCOC(=O)C1=C(Nc2cccc(F)c2)CC(c2ccc(F)cc2)N(c2cccc(F)c2)C1c1ccc(F)cc1` (stereo not drawn), the IC50 against Cholinesterase is 1990 nM; in [1], 1100 nM; against Acetylcholinesterase [13] it was 1420 nM; in data set [17] it was 367 nM; in data set [2], 519 nM.
For `CCOC(=O)C1=C(Nc2ccc(F)cc2)CC(c2ccc(F)cc2)N(c2ccc(F)cc2)C1c1ccc(F)cc1` (stereo not drawn), the result in the data set with Rattus norvegicus [3], with Rattus norvegicus [8], in the data set on Rattus norvegicus [15] and in the data set on Rattus norvegicus [18] was Active. In addition, the Activity is 159.45 mg/dL in the data set on Rattus norvegicus [4]; 501.12 mg/dL with Rattus norvegicus [5]; 341.51 mg/dL with Rattus norvegicus [6]; “Non-Toxic” in data set [7]; 91.16 mg/dL with Rattus norvegicus [9]; 419.93 mg/dL in the data set on Rattus norvegicus [10]. In addition, the Activity turned out to be 256.71 mg/dL in the data set with Rattus norvegicus [11], 97.65 mg/dL in the data set on Rattus norvegicus [12], 59.16 mg/dL in the data set with Rattus norvegicus [14] and 27.73 mg/dL in the data set on Rattus norvegicus [16]. In addition, the IC50 is 739 nM against Cholinesterase; 691 nM and 690 nM in data set [1]; 774 nM at Acetylcholinesterase [13]; 251 nM in data set [17]; 22 nM and 20 nM in [2]. Moreover, the Ki on Acetylcholinesterase [19] turned out to be 2050 nM. Besides, the inhibition entry on Acetylcholinesterase [20] is “Active”.
As for `CCOC(=O)C1=C(Nc2ccc(F)cc2)CC(c2cccc(F)c2)N(c2ccc(F)cc2)C1c1cccc(F)c1` (stereo not drawn), the IC50 on Cholinesterase stood at 1330 nM; in data set [1], 950 nM; against Acetylcholinesterase [13], 1120 nM; in data set [17] it was 457 nM; in [2], 562 nM.
On to `CCOC(=O)C1=C(Nc2cccc(F)c2)CC(c2ccc(Cl)cc2)N(c2cccc(F)c2)C1c1ccc(Cl)cc1` (stereo not drawn), for which the IC50 at Cholinesterase was found to be 1700 nM; in data set [1] it was 983 nM; against Acetylcholinesterase [13], 1270 nM; in data set [17], 384 nM; in data set [2], 712 nM.
On to `CCOC(=O)C1=C(Nc2ccc(F)cc2)CC(c2ccc(C(F)(F)F)cc2)N(c2ccc(F)cc2)C1c1ccc(C(F)(F)F)cc1` (stereo not drawn), for which the result in the data set on Rattus norvegicus [3], with Rattus norvegicus [8], in the data set on Rattus norvegicus [15] and in the data set on Rattus norvegicus [18] was Active. Also, the Activity in the data set on Rattus norvegicus [4] was 138.56 mg/dL; with Rattus norvegicus [5], 497.98 mg/dL; in the data set with Rattus norvegicus [6] it was 320.81 mg/dL; in [7] it was “Non-Toxic”; in the data set on Rattus norvegicus [9] it was 75.05 mg/dL; with Rattus norvegicus [10], 417.55 mg/dL. Moreover, the Activity in the data set on Rattus norvegicus [11] was 231.77 mg/dL; with Rattus norvegicus [12] it was 91.96 mg/dL; in the data set with Rattus norvegicus [14], 47.51 mg/dL; in the data set on Rattus norvegicus [16], 33.51 mg/dL. Also, the Ki in [21] worked out at 117000 nM. Besides, the IC50 at Cholinesterase came to 1020 nM; in data set [1] it was 633 nM; against Acetylcholinesterase [13], 932 nM; in [17], 176 nM; in data set [2] it was 167 nM. Also, in the data set filed under Homo sapiens, the inhibition result was “Active”.
On to `CCOC(=O)C1=C(Nc2ccccc2)CC(c2ccc(F)cc2)N(c2ccccc2)C1c1ccc(F)cc1` (stereo not drawn), for which the IC50 amounted to 1280 nM against Cholinesterase; 1050 nM in data set [1]; 1360 nM on Acetylcholinesterase [13]; 473 nM in data set [17]; 216 nM in data set [2].
